Source: article PMC11375702, “Early Preclinical Studies of Ergosterol Peroxide and Biological Evaluation of Its Derivatives” (ACS Omega, 2024)
Like-named read-outs stand apart in the source and are kept apart here.

Tests used:
[1] = Metabolic stability in mouse liver microsomes; format: in vitro ADME; conditions: female, CD-1, pooled liver microsomes, read-out: metabolic stability (mouse) t1/2 (converted)
Description: (§2) Human and/or mouse microsomal degradation was determined using multiple time points to monitor the rate of disappearance of the parent compound during incubation following the method described by Di et al.[51],[52] […] The metabolic stability was evaluated via the half-life from the least-squares fit of the multiple time points based on first-order kinetics. Waters ACQUITY-TOQ UPLC-MS-MS-UV system was used to analyze the samples as established in various MS core facilities.[51],[52]

[2] = Metabolic stability in human liver microsomes; format: in vitro ADME; conditions: both sexes, pooled liver microsomes, read-out: metabolic stability (human) t1/2 (converted)
Description: as §2

[3] = Plasma protein binding, rapid equilibrium dialysis (mouse); format: in vitro ADME; conditions: read-out: plasma binding (mouse) protein binding (converted)
Description: (§1) This assay determines the plasma protein binding of a drug or compound and free drug concentration in plasma using rapid equilibrium dialysis. We use the Single-Use RED (rapid equilibrium dialysis, Thermo Scientific) devices to allow the aqueous component of plasma containing the free drug/compound through a dialysis membrane (MWCO ∼ 8000). Sample quantification is determined using a Waters ACQUITY-SOQ UPLC-MS-ELDS-UV system.

[4] = Plasma protein binding, rapid equilibrium dialysis (human); format: in vitro ADME; conditions: read-out: plasma binding (human) protein binding (converted)
Description: as §1

Caco-2 cells = assay: Caco-2 permeability assay; format: in vitro ADME; conditions: Caco-2
Description: It was performed in the 96-well Transwell system with a modified method.[36] Caco-2 cells were maintained at 37 °C in a humidified incubator with an atmosphere of 5% CO2. The cells were cultured in MEM containing 20% FBS in […], 100 units/mL penicillin, and 100 μg/mL of streptomycin. The Caco-2 cells were seeded onto inserts of a 96-well plate at a density of 0.5 × 10^5 cells/insert and cultured in the MEM containing 20% FBS for 7 days. Each cultured monolayer on the 96-well plate was washed twice with HBSS/HEPES (10 mM, pH 7.4). The permeability assay was initiated by the addition of each compound solution (10 μmol/L) into inserts (apical side, A) or receivers (basolateral side, B). The Caco-2 cell monolayers were incubated for 2 h at 37 °C. Fractions were collected from receivers (if apical to basal permeability) or inserts (if basal to apical permeability), and concentrations were assessed by UPLC/MS (Waters; Milford, MA). All compounds were tested in triplicates. The A → B (or B → A) apparent permeability coefficients ([…]) of each compound were calculated using the equation Pappa = dQ/dt × 1/AC0. The flux of a drug across the monolayer is dQ/dt (μmol/s). The initial drug concentration on the apical side is C0 (μmol/L). The surface area of the monolayer is A (cm^2).

CYP2C19 = biological target: T1, CYP2C19 (Homo sapiens, UniProt P33261); assay: Microsomal CYP inhibition assay, CYP2C19; format: in vitro ADME; conditions: pooled human liver microsomes, probe mephenytoin; read-out: CYP-2C19 inhibition
T1 construct: from tissue; host or cells: pooled human liver microsomes
Description: To assess potential cardiotoxicity, we performed the human ether-go-go-related gene (hERG) inhibition assay. […] Briefly, EP was tested at six concentrations (cumulative concentration–response). […] For hepatotoxicity determination, we performed the microsomal CYP inhibition assay. Briefly, EP was incubated at seven increasing concentrations with pooled human liver microsomes. […] The supernatants were analyzed by LC-MS/MS.

[5] = Maximum tolerated dose (MTD) study, single oral dose; format: in vivo, mouse; conditions: for Gross pathology, External Abnormalities: No Abnormality Detected (number of mice) / Gross pathology, Internal Abnormalities: No Abnormality Detected (number of mice): 6 mice examined
Description: The study was conducted according to published and acceptable experimental conditions reported.[53] Animal protocols approved by LSU#IACUCAM21065 and UCC# 037–2021–16–01-PHA-IBC. Briefly, male and female Balb/c mice were given a single oral dose administration of ergosterol peroxide to C57BL/6 female and male mice (5–8 weeks old), followed by 7 days postdose observations. Toxicity is defined as a 20% loss of body weight. The study comprised three groups for a toxicity phase including: one control and two EP-treated groups (G2 and G3), having 6 mice/sex/group. Mice from groups G2 (300 mg/kg BW) and G3 (500 mg/kg BW) were administered an EP uniform suspension (light yellow), once by oral gavage. The mice from the control group (G1) received a 1% v/v Tween 80 and 0.5% w/v NaCMC in the RO water suspension. The dosing volume was kept constant at 10 mL/kg for each mouse. Then, animals were euthanized, and organs (liver, lung, heart, and kidney) were collected to check global signs of toxicity. Parameters evaluated included observation for clinical signs, body weight, body weight gain, feed consumption, clinical chemistry, and gross pathology. The total animals per MTD was 36 mice.

[6] = Plasma stability assay (mouse)
Description: (§3) Briefly, pooled blood from 3 animals for experiment (male Balb/c 6–8w from the division of laboratory animal medicine in-house breeding colony) was collected, and the heparinized plasma was prepared. Plasma and test compounds were added to individual wells of a 96-well microtiter plate. Compounds were incubated at 37 °C for the provided time points. All tests were performed in triplicates. The test compound was incubated with plasma at six different time points. The reaction was terminated by methanol containing an internal standard. After centrifugation, the concentration of the test compound in the supernatant was quantified by LC-MS/MS.
(§4) Plasma stability assay: Briefly, pooled blood from 3 animals for experiment (male Balb/c 6-8w
(§5) from the division of laboratory animal medicine in-house breeding colony) was collected, and
(§6) the heparinized plasma was prepared. Plasma and test compounds were added to the individual
(§7) wells of a 96-well microtiter plate. Compounds were incubated at 37°C for the provided time
(§8) points. All tests were performed in triplicates. Then, the test compound was incubated with
(§9) plasma at six different time points. The reaction was terminated by the addition of methanol
(§10) containing an internal standard. After centrifugation, the concentration of the test compound in
(§11) the supernatant was quantified by LC-MS/MS. The percentage of test compound remaining at
(§12) compounds are known to be metabolized by plasma esterases,1 and were also incubated with
each batch of test compound.
(§13) A standard protocol and MS method was used for the plasma stability experiment. The extraction
(§14) procedure for plasma/tissue samples and the spiked plasma/tissue calibration standards were
(§15) identical: A 25 µL of study sample or spiked plasma/tissue calibration standard was added to
(§16) individual pre-labeled micro-centrifuge tubes followed by 100 µL of internal standard prepared
(§17) in Acetonitrile (Albendazole, 500 ng/mL) was added except for blank, where 100 µL of
(§18) Acetonitrile was added. Samples were vortexed for 5 minutes. Samples were centrifuged for 5
(§19) minutes at a speed of 4000 rpm at 4°C. Following centrifugation, 100 µL of clear supernatant
(§20) was transferred in 96 well plates and analyzed using LC-MS/MS mode. The LC system
(§21) comprises of a binary pump that can mix two mobile phases: A = Water+0.1% formic acid; B =
(§22) acetonitrile +0.1%formic acid. The system was operated in gradient mode using a 6 minute
(§23) min, 10-90% A to B in 5.5-6 min, and then hold at this gradient, using a Phenomenex Luna, 150
(§24) X 4.6 mm, 5 µm column. Source Parameter: positive, Ion Spray Voltage 5500, Temperature
550C, interface heater on.

[7] = Balb/c, mouse and human
Description: as §3, §4, §5, §6, §7, §8, §9, §10, §11, §12
each batch of test compound.
as §13, §14, §15, §16, §17, §18, §19, §20, §21, §22, §23, §24
550C, interface heater on.

T1 sequence (P33261 whole entry): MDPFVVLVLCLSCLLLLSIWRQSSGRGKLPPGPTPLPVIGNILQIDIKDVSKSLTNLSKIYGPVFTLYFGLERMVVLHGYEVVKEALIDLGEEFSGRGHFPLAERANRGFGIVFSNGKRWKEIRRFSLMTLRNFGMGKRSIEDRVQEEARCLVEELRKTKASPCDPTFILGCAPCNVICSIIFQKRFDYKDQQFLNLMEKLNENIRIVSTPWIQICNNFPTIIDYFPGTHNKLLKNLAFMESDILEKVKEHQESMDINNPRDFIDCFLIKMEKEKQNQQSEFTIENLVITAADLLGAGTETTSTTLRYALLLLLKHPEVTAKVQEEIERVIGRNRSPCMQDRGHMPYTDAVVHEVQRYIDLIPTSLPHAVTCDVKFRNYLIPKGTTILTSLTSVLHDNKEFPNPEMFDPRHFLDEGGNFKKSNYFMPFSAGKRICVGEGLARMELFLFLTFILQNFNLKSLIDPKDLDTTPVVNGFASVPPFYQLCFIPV

## CC(C)[C@@H](C)/C=C/[C@@H](C)[C@H]1CC[C@@H]2[C@]1(C)CC[C@H]1[C@]23C=C[C@]2(C[C@@H](O)CC[C@]12C)OO3 [Compound 2, Ergosterol peroxide]
[1]
  half-life: 338 min
[2]
  half-life: 164 min
[3]
  fraction unbound: 0.14
[4]
  fraction unbound: 0.28
Caco-2 cells
  efflux ratio (B2A/A2B): 0.93
CYP2C19
  IC50: 19.9 µM
[5]; 300 mg/kg (G2), male mice
  decrease in albumin vs vehicle control: 6%
[5]; 500 mg/kg (G3), male mice
  decrease in triglycerides vs vehicle control: 19%
[5]; both sexes, mouse, in vivo, single oral dose, male or female mice
  MTD at 7 days: > 500 mg/kg
[5]; female, 300 mg/kg
  ALB, mean: 3.08 g/dL
  ALP, mean: 394.32 U/L
  ALT, mean: 44.99 U/L
  AST, mean: 88.20 U/L
  BUN, mean: 16.45 mg/dL
  CREA, mean: 0.21 mg/dL
  TGL, mean: 38.15 mg/dL
  Gross pathology, External Abnormalities: No Abnormality Detected (number of mice): 6
[5]; female, 300 mg/kg, day 1
  Body Weight, mean: 21.05 g
[5]; female, 300 mg/kg, day 1 to 4
  Food Consumption, Average Feed Intake/ Animal: 12.3 g/Animal
[5]; female, 300 mg/kg, day 4
  Body Weight, mean: 21.15 g
[5]; female, 300 mg/kg, day 4 to 7
  Food Consumption, Average Feed Intake/ Animal: 12.2 g/Animal
[5]; female, 300 mg/kg, day 7
  Body Weight, mean: 21.45 g
[5]; female, 500 mg/kg
  ALB, mean: 3.03 g/dL
  ALP, mean: 400.51 U/L
  ALT, mean: 47.50 U/L
  AST, mean: 75.14 U/L
  BUN, mean: 17.63 mg/dL
  CREA, mean: 0.20 mg/dL
  TGL, mean: 30.51 mg/dL
  Gross pathology, External Abnormalities: No Abnormality Detected (number of mice): 6
[5]; female, 500 mg/kg, day 1
  Body Weight, mean: 21.27 g
[5]; female, 500 mg/kg, day 1 to 4
  Food Consumption, Average Feed Intake/ Animal: 12.3 g/Animal
[5]; female, 500 mg/kg, day 4
  Body Weight, mean: 21.17 g
[5]; female, 500 mg/kg, day 4 to 7
  Food Consumption, Average Feed Intake/ Animal: 11.8 g/Animal
[5]; female, 500 mg/kg, day 7
  Body Weight, mean: 21.53 g
[5]; male, 300 mg/kg
  ALB, mean: 2.91 g/dL
  ALP, mean: 312.51 U/L
  ALT, mean: 34.83 U/L
  AST, mean: 47.80 U/L
  BUN, mean: 16.45 mg/dL
  CREA, mean: 0.17 mg/dL
  TGL, mean: 51.23 mg/dL
  Gross pathology, External Abnormalities: No Abnormality Detected (number of mice): 6
  Gross pathology, Internal Abnormalities: No Abnormality Detected (number of mice): 6
[5]; male, 300 mg/kg, day 1
  Body Weight, mean: 21.85 g
[5]; male, 300 mg/kg, day 1 to 4
  Food Consumption, Average Feed Intake/ Animal: 14.9 g/Animal
[5]; male, 300 mg/kg, day 4
  Body Weight, mean: 22.28 g
[5]; male, 300 mg/kg, day 4 to 7
  Food Consumption, Average Feed Intake/ Animal: 14.6 g/Animal
[5]; male, 300 mg/kg, day 7
  Body Weight, mean: 23.03 g
[5]; male, 500 mg/kg
  ALB, mean: 3.03 g/dL
  ALP, mean: 412.86 U/L
  ALT, mean: 54.07 U/L
  AST, mean: 91.50 U/L
  BUN, mean: 17.06 mg/dL
  CREA, mean: 0.17 mg/dL
  TGL, mean: 46.91 mg/dL
  Gross pathology, External Abnormalities: No Abnormality Detected (number of mice): 6
  Gross pathology, Internal Abnormalities: No Abnormality Detected (number of mice): 6
[5]; male, 500 mg/kg, day 1
  Body Weight, mean: 22.62 g
[5]; male, 500 mg/kg, day 1 to 4
  Food Consumption, Average Feed Intake/ Animal: 10.4 g/Animal
[5]; male, 500 mg/kg, day 4
  Body Weight, mean: 22.70 g
[5]; male, 500 mg/kg, day 4 to 7
  Food Consumption, Average Feed Intake/ Animal: 13.7 g/Animal
[5]; male, 500 mg/kg, day 7
  Body Weight, mean: 22.27 g
[5]; oral, 300 and 500 mg/kg, mice
  clinical signs: no abnormal clinical signs
[6]; male, Balb/c, mouse, plasma
  half-life: > 2880 min
[6]; species not specified
  plasma stability: > 48 h

## CC(C)[C@@H](C)/C=C/[C@@H](C)[C@H]1CC[C@@H]2[C@]1(C)CC[C@H]1[C@]23C=C[C@]2(CC(=O)CC[C@]12C)OO3 [Compound 3]
[1]
  half-life: 54 min
[2]
  half-life: 49.8 min
[7]
  plasma stability: > 48 h
